Data from US11530223B2, “Spiro-lactam NMDA receptor modulators and uses thereof” (Aptinyx Inc., priority 2016, dated 2022).
Read-outs that look alike come from different tables or passages of the source.

What was measured:
IV pharmacokinetics = type: in vivo; settings: Sprague Dawley rats; for C0: normal saline (first four compounds: 5% NMP, 5% Solutol HS, 90% normal saline); for Vd: read-out: Vss
Description: Sprague Dawley rats were dosed intravenously using a normal saline formulation containing 2 mg/kg of the compounds identified in the below table (except for the first four compounds that were delivered in 5% NMP, 5% Solutol® HS and 90% normal saline formulation). The table below summarizes the results of the IV pharmacokinetics.

NMDAR2B = target: T1, NMDAR2B (Homo sapiens, UniProt Q13224); test: [3H]MK-801 binding in NMDAR2B expressing HEK cell membranes; type: biochemical; parameters: key to B: log EC50: 0=−; ≥1×10^−9 M (e.g., −8)=+; <1×10^−9 M (e.g., −10)=++; settings: 50 μM glutamate; for Emax: read-out: A: % maximal [3H]MK-801 binding relative to 1 mM glycine; for EC50: read-out: B: log EC50 (converted)
T1 construct: expressed in transfected cells; host or cells: HEK cells (membrane extract)
Description: (§1) Assays were conducted as described by Moskal et al., “GLYX-13: a monoclonal antibody-derived peptide that acts as an N-methyl-D-aspartate receptor modulator,” Neuropharmacology, 49, 1077-87, 2005. These studies were designed to determine if the test compounds act to facilitate NMDAR activation in NMDAR2A, NMDAR2B, NMDAR2C or NMDAR2D expressing HEK cell membranes as measured by increases in [^3H]MK-801 binding.
(§2) In the assay, 300 μg of NMDAR expressing HEK cell membrane extract protein was preincubated for 15 minutes at 25° C. in the presence of saturating concentrations of glutamate (50 μM) and varying concentrations of test compound (1×10^−15M−1×10^−7M), or 1 mM glycine. Following the addition of 0.3 μCi of [^3H]MK-801 (22.5 Ci/mmol), reactions were again incubated for 15 minutes at 25° C. (nonequilibrium conditions). Bound and free [^3H]MK-801 were separated via rapid filtration using a Brandel apparatus.
(§3) In analyzing the data, the DPM (disintegrations per minute) of [^3H]MK-801 remaining on the filter were measured for each concentration of test compound or for 1 mM glycine. The DPM values for each concentration of a ligand (N=2) were averaged. The baseline value was determined from the best fit curve of the DPM values modeled using the GraphPad program and the log(agonist) vs. response (three parameters) algorithm was then subtracted from all points in the dataset. The % maximal [^3H]MK-801 binding was then calculated relative to that of 1 mM glycine: all baseline subtracted DPM values were divided by the average value for 1 mM glycine. The EC50 and % maximal activity were then obtained from the best fit curve of the % maximal [^3H]MK-801 binding data modelled using the GraphPad program and the log(agonist) vs. response (three parameters) algorithm.
(§4) The tables below summarize the results for the wild type […] NMDAR2A, NMDAR2B, NMDAR2C, and NMDAR2D, and whether the compound is not an agonist (−), is an agonist (+), or is a strong agonist (++), where column A is based on the % maximal [^3H]MK-801 binding relative to 1 mM glycine (−=0; <100%=+; and >100%=++); and column B is based on log EC50 values (0=−; ≥1×10^−9 M (e.g., −8)=+; and <1×10^−9 M (e.g., −10)=++).

NMDAR2A = target: T2, NMDAR2A (Homo sapiens, UniProt Q12879); test: [3H]MK-801 binding in NMDAR2A expressing HEK cell membranes; type: biochemical; parameters: key to B: log EC50: 0=−; ≥1×10^−9 M (e.g., −8)=+; <1×10^−9 M (e.g., −10)=++; settings: 50 μM glutamate; for Emax: read-out: A: % maximal [3H]MK-801 binding relative to 1 mM glycine; for EC50: read-out: B: log EC50 (converted)
T2 construct: expressed in transfected cells; host or cells: HEK cells (membrane extract)
Description: as §1, §2, §3, §4

[1] = oral pharmacokinetics (plasma, brain, CSF); type: in vivo; settings: Sprague Dawley rats, per os 10 mg/kg; for Tmax: normal saline (first four compounds: 5% NMP, 5% Solutol HS, 90% normal saline)
Description: Plasma, brain, and CSF samples were analyzed at various time points over a 24 hour period.

NMDAR2D = target: T3, NMDAR2D (Homo sapiens, UniProt O15399); test: [3H]MK-801 binding in NMDAR2D expressing HEK cell membranes; type: biochemical; parameters: key to B: log EC50: 0=−; ≥1×10^−9 M (e.g., −8)=+; <1×10^−9 M (e.g., −10)=++
T3 construct: expressed in transfected cells; host or cells: HEK cells (membrane extract)
Description: as §1, §2, §3, §4

Sprague Dawley rats = test: Porsolt forced swim test; type: in vivo; settings: 0.1 mg/kg; for % reduction in float time: relative to vehicle group
Description: A non-clinical in vivo pharmacology study (Porsolt assay) was performed to measure antidepressant-like effects. A negative control (0.5% sodium carboxymethyl cellulose in 0.9% sterile saline vehicle) and a positive control (fluoxetine) are shown for comparison against test compound. The study allowed for the evaluation of the effects of each compound on the Porsolt forced swim test as assessed by the rats' response (reduced floating time) during a 5-minute swimming test.
Male 2-3 month old Sprague Dawley rats were used (Harlan, Indianapolis, Ind.). Rats were housed in Lucite cages with aspen wood chip bedding, maintained on a 12:12 light:dark cycle (lights on at 5 AM), and given ad libitum access to Purina lab chow (USA) and tap water throughout the study.
The Porsolt forced swim test adapted for use in rats was performed as described by Burgdorf et al., (The long-lasting antidepressant effects of rapastinel (GLYX-13) are associated with a metaplasticity process in the medial prefrontal cortex and hippocampus. Neuroscience 308:202-211, 2015). Animals were placed in a 46 cm tall×20 cm in diameter clear glass tube filled to 30 cm with tap water (23±1° C.) for 15 min on the first day (habituation) and 5 min on the subsequent test day. Positive control fluoxetine was dosed 3 times (24 h, 5 h and 1 h) prior to testing. Animals were tested 1 h or 24 h post-dosing with the test compounds or vehicle. Animals received a 15 min habituation session 1 day before the 5 min test. A subset of compounds tested at 1 h post-dosing were retested at 1 wk post-dosing in the same sets of animals. Water was changed after every other animal. Animals were videotaped, and floating time as defined as the minimal amount of effort required to keep the animals head above water was scored offline by a blinded experimenter with high inter-rater reliability (Pearson's r>0.9).
Each compound tested at dose level shown. Significance vs. vehicle group for each experiment is marked. […] A compound marked “No” was not statistically significant from vehicle. Data was averaged for test compound and vehicle groups (N approximately 8 per group) and the percent reduction in floating for group treated with test compound relative to group treated with vehicle is shown.

[2] = Sprague Dawley, rat, in vivo, iv, 2 mg/kg
[3] = Sprague Dawley, rat, in vivo, iv, 2 mg/kg, read-out: C0
[4] = Sprague Dawley, rat, plasma, po, 10 mg/kg
[5] = Sprague Dawley, rat, plasma, po, 10 mg/kg, read-out: Tmax
[6] = Sprague Dawley, rat, plasma, po, 10 mg/kg, plasma, read-out: Cmax

T2 sequence (Q12879 23-1464, species assumed, other chains not shown): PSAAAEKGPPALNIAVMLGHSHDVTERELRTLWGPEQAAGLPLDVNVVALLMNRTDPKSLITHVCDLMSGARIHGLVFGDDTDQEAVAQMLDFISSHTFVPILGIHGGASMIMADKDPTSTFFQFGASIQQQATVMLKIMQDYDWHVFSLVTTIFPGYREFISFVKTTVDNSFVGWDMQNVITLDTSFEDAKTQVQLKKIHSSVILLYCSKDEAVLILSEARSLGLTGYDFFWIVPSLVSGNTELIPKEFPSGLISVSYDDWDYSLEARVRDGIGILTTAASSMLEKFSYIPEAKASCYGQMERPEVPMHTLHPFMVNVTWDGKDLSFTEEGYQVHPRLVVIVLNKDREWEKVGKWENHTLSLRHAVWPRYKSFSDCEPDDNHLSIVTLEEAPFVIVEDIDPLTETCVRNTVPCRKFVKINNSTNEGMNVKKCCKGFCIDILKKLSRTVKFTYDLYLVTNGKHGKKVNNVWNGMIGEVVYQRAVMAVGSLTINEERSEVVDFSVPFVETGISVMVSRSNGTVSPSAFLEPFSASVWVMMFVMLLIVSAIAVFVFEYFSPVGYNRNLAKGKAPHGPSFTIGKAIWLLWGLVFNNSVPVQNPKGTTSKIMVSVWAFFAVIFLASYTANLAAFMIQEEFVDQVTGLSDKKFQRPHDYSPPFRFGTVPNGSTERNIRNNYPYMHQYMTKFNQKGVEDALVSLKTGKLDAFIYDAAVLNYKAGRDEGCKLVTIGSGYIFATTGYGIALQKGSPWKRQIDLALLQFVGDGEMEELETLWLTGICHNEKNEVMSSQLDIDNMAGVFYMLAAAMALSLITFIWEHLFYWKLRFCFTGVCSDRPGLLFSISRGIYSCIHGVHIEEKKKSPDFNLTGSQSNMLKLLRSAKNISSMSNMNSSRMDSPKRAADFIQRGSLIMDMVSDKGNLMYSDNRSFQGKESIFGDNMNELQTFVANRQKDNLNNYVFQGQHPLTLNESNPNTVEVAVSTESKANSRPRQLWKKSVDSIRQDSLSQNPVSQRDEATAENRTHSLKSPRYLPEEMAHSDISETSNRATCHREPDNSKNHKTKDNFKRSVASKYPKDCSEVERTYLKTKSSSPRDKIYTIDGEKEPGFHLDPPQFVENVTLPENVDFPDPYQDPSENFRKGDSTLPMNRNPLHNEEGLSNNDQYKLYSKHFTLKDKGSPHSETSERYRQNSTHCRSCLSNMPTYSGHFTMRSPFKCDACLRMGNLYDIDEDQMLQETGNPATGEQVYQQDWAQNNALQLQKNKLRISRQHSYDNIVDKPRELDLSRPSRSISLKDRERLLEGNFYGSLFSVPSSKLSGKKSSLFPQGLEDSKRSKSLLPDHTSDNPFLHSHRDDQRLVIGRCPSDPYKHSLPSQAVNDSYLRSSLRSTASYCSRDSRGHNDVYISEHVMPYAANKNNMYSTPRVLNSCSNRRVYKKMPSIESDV
T1 sequence (Q13224 27-1484, species assumed, other chains not shown): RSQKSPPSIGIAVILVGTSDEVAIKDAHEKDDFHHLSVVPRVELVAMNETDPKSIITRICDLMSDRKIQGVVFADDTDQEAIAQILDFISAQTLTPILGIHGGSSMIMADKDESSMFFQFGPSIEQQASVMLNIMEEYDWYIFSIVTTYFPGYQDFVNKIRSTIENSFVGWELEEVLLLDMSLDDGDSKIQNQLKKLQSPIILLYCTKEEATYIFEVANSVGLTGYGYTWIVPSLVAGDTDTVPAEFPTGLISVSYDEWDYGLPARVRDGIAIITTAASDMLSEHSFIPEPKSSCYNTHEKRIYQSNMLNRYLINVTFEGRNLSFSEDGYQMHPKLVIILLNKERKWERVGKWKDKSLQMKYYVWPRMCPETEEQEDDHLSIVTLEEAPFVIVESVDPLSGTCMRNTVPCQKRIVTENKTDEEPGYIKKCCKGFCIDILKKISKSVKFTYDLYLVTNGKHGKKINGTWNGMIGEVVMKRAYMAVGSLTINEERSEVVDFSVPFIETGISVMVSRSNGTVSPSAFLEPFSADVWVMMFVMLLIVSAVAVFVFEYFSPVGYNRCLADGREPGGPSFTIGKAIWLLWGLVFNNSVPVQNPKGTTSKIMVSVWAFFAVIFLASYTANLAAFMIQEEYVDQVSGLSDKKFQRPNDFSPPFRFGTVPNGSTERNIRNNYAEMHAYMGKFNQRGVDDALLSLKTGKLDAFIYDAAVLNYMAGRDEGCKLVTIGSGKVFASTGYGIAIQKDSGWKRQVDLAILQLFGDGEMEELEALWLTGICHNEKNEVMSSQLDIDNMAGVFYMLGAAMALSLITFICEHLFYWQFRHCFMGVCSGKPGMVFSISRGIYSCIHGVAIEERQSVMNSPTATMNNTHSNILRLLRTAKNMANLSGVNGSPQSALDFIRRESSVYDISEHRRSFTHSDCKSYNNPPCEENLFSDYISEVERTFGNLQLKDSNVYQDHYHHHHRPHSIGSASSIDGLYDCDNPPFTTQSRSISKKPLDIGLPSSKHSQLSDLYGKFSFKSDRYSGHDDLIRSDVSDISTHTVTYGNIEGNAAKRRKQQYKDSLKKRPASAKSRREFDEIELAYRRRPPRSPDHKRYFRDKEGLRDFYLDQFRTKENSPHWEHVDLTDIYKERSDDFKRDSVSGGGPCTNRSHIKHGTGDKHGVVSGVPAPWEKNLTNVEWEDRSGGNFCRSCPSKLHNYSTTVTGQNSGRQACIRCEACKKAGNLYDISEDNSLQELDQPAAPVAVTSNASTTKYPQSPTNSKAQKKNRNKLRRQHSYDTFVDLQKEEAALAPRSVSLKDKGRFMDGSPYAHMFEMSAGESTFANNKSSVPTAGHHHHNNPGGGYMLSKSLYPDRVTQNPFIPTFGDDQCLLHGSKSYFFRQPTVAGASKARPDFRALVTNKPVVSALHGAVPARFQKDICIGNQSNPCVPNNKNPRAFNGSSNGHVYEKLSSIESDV
T3 sequence (O15399 28-1336, species assumed, other chains not shown): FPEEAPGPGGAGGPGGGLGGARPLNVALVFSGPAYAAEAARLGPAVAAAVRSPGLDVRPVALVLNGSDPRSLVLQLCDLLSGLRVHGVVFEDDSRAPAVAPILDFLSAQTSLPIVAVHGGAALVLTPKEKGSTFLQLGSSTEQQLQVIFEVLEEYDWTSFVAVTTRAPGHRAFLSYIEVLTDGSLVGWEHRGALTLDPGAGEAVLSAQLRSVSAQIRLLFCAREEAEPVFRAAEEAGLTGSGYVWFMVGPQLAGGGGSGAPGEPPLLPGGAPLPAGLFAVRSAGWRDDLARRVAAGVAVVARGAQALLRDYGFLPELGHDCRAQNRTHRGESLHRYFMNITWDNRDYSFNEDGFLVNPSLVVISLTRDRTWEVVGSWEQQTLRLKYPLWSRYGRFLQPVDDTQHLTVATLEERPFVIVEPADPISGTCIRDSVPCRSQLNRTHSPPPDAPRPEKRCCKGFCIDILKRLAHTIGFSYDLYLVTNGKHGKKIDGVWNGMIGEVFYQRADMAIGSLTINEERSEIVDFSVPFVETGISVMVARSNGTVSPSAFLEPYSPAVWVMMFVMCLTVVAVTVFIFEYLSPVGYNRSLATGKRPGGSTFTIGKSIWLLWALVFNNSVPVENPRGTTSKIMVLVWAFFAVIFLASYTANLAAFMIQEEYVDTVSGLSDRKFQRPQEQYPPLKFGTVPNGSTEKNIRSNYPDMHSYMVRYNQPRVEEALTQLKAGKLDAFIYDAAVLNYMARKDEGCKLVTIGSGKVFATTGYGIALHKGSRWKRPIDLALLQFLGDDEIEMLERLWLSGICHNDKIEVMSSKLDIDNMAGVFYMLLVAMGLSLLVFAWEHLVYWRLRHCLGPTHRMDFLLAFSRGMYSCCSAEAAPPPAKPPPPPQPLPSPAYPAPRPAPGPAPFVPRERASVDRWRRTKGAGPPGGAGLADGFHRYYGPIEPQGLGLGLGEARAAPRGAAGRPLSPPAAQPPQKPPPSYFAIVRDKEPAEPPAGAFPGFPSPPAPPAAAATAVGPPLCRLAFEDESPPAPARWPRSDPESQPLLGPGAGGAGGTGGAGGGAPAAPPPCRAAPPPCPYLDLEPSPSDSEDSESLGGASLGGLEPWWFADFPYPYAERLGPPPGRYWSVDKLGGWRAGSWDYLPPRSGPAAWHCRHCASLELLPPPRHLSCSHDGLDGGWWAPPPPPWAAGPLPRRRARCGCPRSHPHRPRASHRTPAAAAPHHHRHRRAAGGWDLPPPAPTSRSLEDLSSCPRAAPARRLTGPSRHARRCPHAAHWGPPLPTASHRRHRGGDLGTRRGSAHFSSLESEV

O=C1NCCC12CCNCC2 [RG-603]
AUC(0-t) (IV pharmacokinetics; [2]): 1570 ng·h/mL | clearance (IV pharmacokinetics; [2]): 21.1 mL/min/kg | half-life (IV pharmacokinetics; [2]): 59.4 min | C0 (IV pharmacokinetics; [3]): 5190 ng/mL | Vd (IV pharmacokinetics; [2]): 0.81 L/kg | Emax (NMDAR2B): < 100% | EC50 (NMDAR2B): < 1 nM | Emax (NMDAR2A): < 100% | EC50 (NMDAR2A): ≥ 1 nM | AUC(0-t) [1, 4]: 897 ng·h/mL | bioavailability [1, 4]: 11% | Tmax [1, 5]: 60 min | Cmax [1, 6]: 311 ng/mL

CC(C)(C)OC(=O)N1CCCCC12CCNC2=O (stereo not drawn) [RG-606]
A: % maximal [3H]MK-801 binding relative to 1 mM glycine (NMDAR2D; second part of table (r25-r35), c3, taken as NMDAR2D): − (−=0) | B: log EC50 (NMDAR2D; second part of table, c4, taken as NMDAR2D): − | AUClast (IV pharmacokinetics; intravenous 2 mg/kg): 804 ng·h/mL | Cl (IV pharmacokinetics; intravenous 2 mg/kg): 41.29 mL/min/kg | T1/2 (IV pharmacokinetics; intravenous 2 mg/kg): 20.4 min | Vss (IV pharmacokinetics; intravenous 2 mg/kg): 0.91 L/kg | C0 (IV pharmacokinetics; intravenous 2 mg/kg): 2303 ng/mL | A: % maximal [3H]MK-801 binding relative to 1 mM glycine (NMDAR2B): + (<100%=+) | EC50 (NMDAR2B): < 1 nM | A: % maximal [3H]MK-801 binding relative to 1 mM glycine (NMDAR2A): − (−=0) | B: log EC50 (NMDAR2A): − | % F [1]: 48% | AUClast [1]: 1933 ng·h/mL | CSF Cmax [1]: 1077 ng/mL | Brain Cmax [1]: 612 ng/mL | Tmax [1]: 15 min | Cmax ([1]; plasma): 2812 ng/mL

CC(C)C(=O)N1CCCCC12CCNC2=O (stereo not drawn) [RG-609]
B: log EC50 (NMDAR2B): − | Emax (NMDAR2B): 0% | B: log EC50 (NMDAR2A): − | Emax (NMDAR2A): 0%

CC(C)C(=O)N1CCCCC12CCNC2=O (stereo not drawn) [RG-610]
B: log EC50 (NMDAR2B): − | B: log EC50 (NMDAR2A): −

CC(C)(C)OC(=O)N1CCC2(CCNC2=O)CC1 [RG-619]
B: log EC50 (NMDAR2B): − | Emax (NMDAR2B): 0% | B: log EC50 (NMDAR2A): − | Emax (NMDAR2A): 0%

CC(=O)N1CCC2(CCNC2=O)CC1 [RG-621]
AUC(0-t) (IV pharmacokinetics; [2]): 6230 ng·h/mL | clearance (IV pharmacokinetics; [2]): 5.33 mL/min/kg | half-life (IV pharmacokinetics; [2]): 103 min | C0 (IV pharmacokinetics; [3]): 4760 ng/mL | Vd (IV pharmacokinetics; [2]): 0.52 L/kg | Emax (NMDAR2B): > 100% | EC50 (NMDAR2B): < 1 nM | Emax (NMDAR2A): < 100% | EC50 (NMDAR2A): < 1 nM | CSF Cmax [1]: 3654.37 ng/mL | Brain Cmax [1]: 1977.29 ng/mL | AUC(0-t) [1, 4]: 29100 ng·h/mL | bioavailability [1, 4]: 93% | Tmax [1, 5]: 34.8 min | Cmax [1, 6]: 12000 ng/mL

CC(C)C(=O)N1CCC2(CCNC2=O)CC1 [RG-623]
Significance vs. vehicle (Sprague Dawley rats; 1 h post-dose, floating time in 5 min test): Yes (statistically significant (p<=0.05) from vehicle at dose level shown) | % reduction in float time (Sprague Dawley rats; 1 h post-dose): 60.0% | Significance vs. vehicle (Sprague Dawley rats; 24 h post-dose): Yes (statistically significant (p<=0.05) from vehicle at dose level shown) | % reduction in float time (Sprague Dawley rats; 24 h post-dose): 52.9% | AUC(0-t) (IV pharmacokinetics; [2]): 10500 ng·h/mL | clearance (IV pharmacokinetics; [2]): 3.18 mL/min/kg | half-life (IV pharmacokinetics; [2]): 239 min | C0 (IV pharmacokinetics; [3]): 4130 ng/mL | Vd (IV pharmacokinetics; [2]): 0.56 L/kg | Emax (NMDAR2B): < 100% | EC50 (NMDAR2B): < 1 nM | B: log EC50 (NMDAR2A): − | Emax (NMDAR2A): 0% | CSF Cmax [1]: 4727 ng/mL | Brain Cmax [1]: 4317 ng/mL | AUC(0-t) [1, 4]: 42600 ng·h/mL | bioavailability [1, 4]: 81% | Cmax [1, 6]: 10900 ng/mL | Tmax ([1]; rat, plasma, po, read-out: Tmax): 25.2 min

O=C1NCCC12CCCN2 (stereo not drawn) [RX-1, 1,7-diazaspiro[4.4]nonan-6-one]
B: log EC50 (NMDAR2B): − | Emax (NMDAR2B): 0% | B: log EC50 (NMDAR2A): − | Emax (NMDAR2A): 0%

CC(=O)N1CCCC12CCNC2=O (stereo not drawn) [RZ-403]
A: % maximal [3H]MK-801 binding relative to 1 mM glycine (NMDAR2B): ++ (>100%=++) | EC50 (NMDAR2B): < 1 nM | A: % maximal [3H]MK-801 binding relative to 1 mM glycine (NMDAR2A): − (−=0) | B: log EC50 (NMDAR2A): −

CC(=O)N1CCCC12CCNC2=O (stereo not drawn) [RZ-404]
A: % maximal [3H]MK-801 binding relative to 1 mM glycine (NMDAR2B): − (−=0) | B: log EC50 (NMDAR2B): − | A: % maximal [3H]MK-801 binding relative to 1 mM glycine (NMDAR2A): + (<100%=+) | EC50 (NMDAR2A): < 1 nM

CC(C)C(=O)N1CCCC12CCNC2=O (stereo not drawn) [RZ-406]
A: % maximal [3H]MK-801 binding relative to 1 mM glycine (NMDAR2B): + (<100%=+) | EC50 (NMDAR2B): < 1 nM | A: % maximal [3H]MK-801 binding relative to 1 mM glycine (NMDAR2A): − (−=0) | B: log EC50 (NMDAR2A): −
